Source: patent EP0430045B1, “Ascorbic acid tocopheryl phosphate diesters for inhibition of Maillard's reaction” (Senju Pharmaceutical Co., Ltd., priority 1989, dated 1991)

Biological target: T1, bovine serum albumine (Bos taurus, UniProt P02769)
T1 construct: purchased Sigma A-8022
Assay: Inhibition of furosine formation (non-enzymatic glycosylation of BSA by glucose, Maillard's reaction), furosine determined by HPLC
Assay type: biochemical
Settings: inhibition rate of furosine formation; 5 mM test compound, 20 mg/ml BSA, 50 mM glucose, 50 mM phosphate buffer pH 7.3, 4 weeks at 37 °C
Method: Sample solutions as shown below were aseptically prepared from bovine serum albumine (No. A-8022, Sigma)(hereinafter referred to as BSA), 50 mM phosphate buffer solution (PH 7.3) and the test compound and aminoguanidine.
Normal sample; 20 mg/ml BSA in buffer solution Control sample: 20 mg/ml BSA and 50 mM glucose in buffer solution Test sample; 20 mg/ml BSA, 50 mM glucose and 5 mM test compound in buffer solution The sample solutions were kept for 4 weeks at 37 °C, and the amount of furosine which was formed by non-enzymatic glycosylation was determined by HPLC according to the method of Schleicher et al. [J. Clin. Biochem., 19:81-87 (1981).] Thus, the sample solutions after reaction were dialyzed, and aliquots of 1 ml were lyophylized and then hydrolyzed by the addition of 1 ml of 6 N hydrochloric acid followed by heating at 100 °C for 20 hours. After removal of hydrochloric acid by evaporation, 1 ml of water was added to each sample, and the samples were subjected to filtration using a filter with the pore size of 0.45 »m. The filtrate was used as the sample for HPLC. […] The absorbance peak whose ratio of peak area at […] was 3.9/1 was regarded as the peak corresponding to furosine.
Upon the area of the peak of furosine of each sample, the inhibition rate of furosine formation by the test compound was calculated as follows. […]

T1 sequence (P02769 25-607): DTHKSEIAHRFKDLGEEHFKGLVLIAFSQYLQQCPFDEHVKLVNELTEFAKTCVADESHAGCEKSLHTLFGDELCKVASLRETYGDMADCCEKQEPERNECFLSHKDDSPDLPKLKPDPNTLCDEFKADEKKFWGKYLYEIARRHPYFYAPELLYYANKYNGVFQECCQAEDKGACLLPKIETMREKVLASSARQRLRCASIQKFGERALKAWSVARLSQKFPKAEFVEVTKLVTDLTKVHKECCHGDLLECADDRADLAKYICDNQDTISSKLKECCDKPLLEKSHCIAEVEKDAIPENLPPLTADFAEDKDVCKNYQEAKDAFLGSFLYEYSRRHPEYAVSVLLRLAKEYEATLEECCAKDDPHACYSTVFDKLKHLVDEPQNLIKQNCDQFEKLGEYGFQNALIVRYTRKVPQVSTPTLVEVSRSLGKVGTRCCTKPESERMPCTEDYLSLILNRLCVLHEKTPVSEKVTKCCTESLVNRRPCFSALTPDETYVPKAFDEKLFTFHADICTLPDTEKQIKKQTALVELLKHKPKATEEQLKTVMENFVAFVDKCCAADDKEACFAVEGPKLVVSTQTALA

inhibition at 5000 µM: 7.5%
Structure (SMILES): N=C(N)NN [Aminoguanidine]
